In patent US10961238B2, “Modulators of hedgehog (Hh) signaling pathway” (E-THERAPEUTICS PLC, priority 2016, dated 2021) one finds IC50 data, which are given here for 34 compounds.

The structures appear in SMILES notation.

The subject of one assay is C3H10T1/2 cells. Briefly: C3H assay: differentiation of C3H10T1/2 cells by mSHH, measurement of alkaline phosphatase. Format: cell-based, mouse. Conditions: Mus musculus, C3H 10T1/2, 72 h, read-out: IC50 Ranges.
For `C[C@@H]1CN(C(=O)N2CC(S(=O)(=O)N3CCC(c4c[nH]c5ncccc45)CC3)C2)C[C@H](C)O1` [Compound 170], the half-maximal inhibitory concentration (IC50) lay in the range of 10 to 100 nM.

Still in this assay, the particulars now being: Mus musculus, C3H 10T1/2; C3H10T1/2 cells stimulated with mSHH for 72 hours; alkaline phosphatase activity; read-out: IC50 Ranges.
For the compound `Cc1noc(C)c1NC(=O)N1CC(S(=O)(=O)N2CCC(c3coc4cccnc34)CC2)C1` [Compound 135, N-(3,5-dimethyl-1,2-oxazol-4-yl)-3-(4-furo[3,2-b]pyridin-3-ylpiperidin-1-yl)sulfonylaze-tidine-carboxamide], the 50% inhibitory concentration (IC50) is less than 10 nM.

For `O=C(OC1CCOCC1)N1CC(S(=O)(=O)N2CCC(c3coc4cccnc34)CC2)C1` [Compound 136, oxan-4-yl 3-(4-furo[3,2-b]pyridin-3-ylpiperidin-1-yl)sulfonylaze-tidine-1-carboxylate], the IC50 was in the range of 10 to 100 nM.

For `O=C(N1CCOCC1)N1CC(S(=O)(=O)N2CCC(c3coc4cccnc34)CC2)C1` [Compound 137, [3-(4-furo [3,2-b]pyridin-3-ylpiperidin-1-yl)sulfonylaze-tidin-1-yl]-morpholin-4-ylmethanone], the IC50 fell in the range of 100 to 1000 nM.

As to `Cc1noc(C)c1CC(=O)N1CC(S(=O)(=O)N2CCC(c3coc4cccnc34)CC2)C1` [Compound 138, N-2-(3,5-Dimethylisoxazol-4-yl)-acetyl 3-[(4-furo[3,2-b]pyridin-3-yl-1-piperidyl)sulfonyl]azetidine], the IC50 is less than 10 nM.

With `O=C(NC1(C(F)(F)F)CC1)N1CC(S(=O)(=O)N2CCC(c3coc4cccnc34)CC2)C1` [Compound 139, 3-(4-furo[3,2-b]pyridin-3-ylpiperidin-1-yl)sulfonyl-N-[1-(trifluoromethyl)cyclopropyl] azetidine-1-carboxamide], the IC50 lay in the range of 10 to 100 nM.

On to `CC(C)(C)COC(=O)N1CC(S(=O)(=O)N2CCC(c3coc4cccnc34)CC2)C1` [Compound 140, 2,2-dimethylpropyl 3-(4-furo[3,2-b]pyridin-3-ylpiperidin-1-yl)sulfonylaze-tidine-1-carboxylate], for which the IC50 is 10 to 100 nM.

Turning to `O=C(OC1CCCCC1)N1CC(S(=O)(=O)N2CCC(c3coc4cccnc34)CC2)C1` [Compound 141, Cyclohexyl 3-[(4-furo[3,2-b]pyridin-3-yl-1-piperidyl)sulfonyl]azetidine-1-carboxylate], the IC50 lay within 10 to 100 nM.

As to `COC(=O)c1cnc(N2CC(S(=O)(=O)N3CCC(c4c[nH]c5ncccc45)CC3)C2)o1` [Compound 142, methyl 2-[3-[4-(1H-pyrrolo [2,3-b]pyridin-3-yl)piperidin-1-yl]sulfonylaze-tidin-1-yl]-1,3-oxazole-5-carboxylate], the 50% inhibitory concentration (IC50) was in the range of 100 to 1000 nM.

For `CN(C)CC(C)(C)OC(=O)N1CC(S(=O)(=O)N2CCC(c3ccncc3)CC2)C1` [Compound 144, [1-(dimethylamino)-2-methylpropan-2-yl]3-(4-pyridin-4-ylpiperidin-1-yl)sulfonylaze-tidine-1-carboxylate], the IC50 lay within 100 to 1000 nM.

On to `CCN(CC)CC(C)(C)CN1CC(S(=O)(=O)N2CCC(c3c[nH]c4ncccc34)CC2)C1` [Compound 145, N,N-diethyl-2,2-dimethyl-3-[3-[4-(1H-pyrrolo[2,3-b]pyridin-3-yl)piperidin-1-yl]sulfonylaze-tidin-1-yl]propan-1-amine], for which the IC50 is 1000 to 10000 nM.

With `CC(C)(CN1CCOCC1)CN1CC(S(=O)(=O)N2CCC(c3c[nH]c4ncccc34)CC2)C1` [Compound 146], the IC50 is 1000 to 10000 nM.

With `CC(C)C(C(C)C)N1CC(S(=O)(=O)N2CCC(c3c[nH]c4ncccc34)CC2)C1` [Compound 148, 3-[1-[1-(2,4-dimethylpentan-3-yl)azetidin-3-yl]sulfonylpiper-idin-4-yl]-1H-pyrrolo[2,3-b]pyridine], the IC50 is 1000 to 10000 nM.

`COC(=O)N1CC(S(=O)(=O)N2CCC(c3c[nH]c4ncccc34)CC2)C1` [Compound 151, methyl 3-[4-(1H-pyrrolo [2,3-b]pyridin-3-yl)piperidin-1-yl]sulfonylaze-tidine-1-carboxylate]: the IC50 was 100 to 1000 nM.

With `COCC(C)(C)OC(=O)N1CC(S(=O)(=O)N2CCC(c3c[nH]c4ncccc34)CC2)C1` [Compound 152, (1-methoxy-2-methylpropan-2-yl) 3-[4-(1H-pyrrolo[2,3-b]pyridin-3-yl)piperidin-1-yl]sulfonylaze-tidine-1-carboxylate], the IC50 is less than 10 nM.

With `CC[C@H](C)OC(=O)N1CC(S(=O)(=O)N2CCC(c3c[nH]c4ncccc34)CC2)C1` [Compound 153, [(2S)-butan-2-yl] 3-[4-(1H-pyrrolo[2,3-b]pyridin-3-yl)piperidin-1-yl]sulfonylaze-tidine-1-carboxylate], the IC50 is 10 to 100 nM.

As to `O=S(=O)(C1CN(c2ncccn2)C1)N1CCC(c2c[nH]c3ncccc23)CC1` [Compound 155, 3-[1-(1-pyrimidin-2-ylazetidin-3-yl)sulfonylpiper-idin-4-yl]-1H-pyrrolo[2,3-b]pyridine], the half-maximal inhibitory concentration (IC50) fell in the range of 100 to 1000 nM.

For `CCN(C(=O)N1CC(S(=O)(=O)N2CCC(c3c[nH]c4ncccc34)CC2)C1)C(C)(C)C` [Compound 156, N-tert-butyl-N-ethyl-3-[4-(1H-pyrrolo[2,3-b]pyridin-3-yl)piperidin-1-yl]sulfonylaze-tidine-1-carboxamide], the 50% inhibitory concentration (IC50) is less than 10 nM.

On to `O=S(=O)(C1CN(Cc2cccnc2)C1)N1CCC(c2c[nH]c3ncccc23)CC1` [Compound 157, 3-[1-[1-(pyridin-3-ylmethyl)azetidin-3-yl]sulfonylpiper-idin-4-yl]-1H-pyrrolo[2,3-b]pyridine], for which the IC50 fell in the range of 1000 to 10000 nM.

With `O=S(=O)(C1CN(C2CCCC2)C1)N1CCC(c2c[nH]c3ncccc23)CC1` [Compound 158], the IC50 lay within 1000 to 10000 nM.

Consider `CC1(CN2CC(S(=O)(=O)N3CCC(c4c[nH]c5ncccc45)CC3)C2)COC1` [Compound 159, 3-[1-[1-[(3-methyloxetan-3-yl)methyl]azetidin-3-yl]-sulfonylpiper-idin-4-yl]-1H-pyrrolo[2,3-b]pyridine], for which the IC50 lay within 1000 to 10000 nM.

For the compound `O=C(OC[C@@H]1CCCO1)N1CC(S(=O)(=O)N2CCC(c3c[nH]c4ncccc34)CC2)C1` [Compound 163, [(2S)-oxolan-2-yl]methyl 3-[4-(1H-pyrrolo[2,3-b]pyridin-3-yl)piperidin-1-yl]sulfonylaze-tidine-1-carboxylate], the 50% inhibitory concentration (IC50) was 10 to 100 nM.

Regarding `C[C@@H]1CN(C(=O)N2CC(S(=O)(=O)N3CCC(c4c[nH]c5ncccc45)CC3)C2)C[C@@H](C)O1` [Compound 164, [(2R,6R)-2,6-dimethylmorpholin-4-yl]-[3-[4-(1H-pyrrolo[2,3-b]pyridin-3-yl)piperidin-1-yl]sulfonylaze-tidin-1-yl]methanone], the IC50 lay in the range of 10 to 100 nM.

With `C[C@H]1COC[C@H](C)N1C(=O)N1CC(S(=O)(=O)N2CCC(c3c[nH]c4ncccc34)CC2)C1` [Compound 165, [(3S,5S)-3,5-dimethylmorpholin-4-yl]-[3-[4-(1H-pyrrolo[2,3-b]pyridin-3-yl)piperidin-1-yl]sulfonylaze-tidin-1-yl]methanone], the IC50 was in the range of 100 to 1000 nM.

For `CN(C)C(=O)N1CC(S(=O)(=O)N2CCC(c3c[nH]c4ncccc34)CC2)C1` [Compound 167, N,N-dimethyl-3-[4-(1H-pyrrolo[2,3-b]pyridin-3-yl)piperidin-1-yl]sulfonylaze-tidine-1-carboxamide], the IC50 lay within 1000 to 10000 nM.

`CC1(C)COCC(C)(C)N1C(=O)N1CC(S(=O)(=O)N2CCC(c3c[nH]c4ncccc34)CC2)C1` [Compound 169, [3-[4-(1H-pyrrolo[2,3-b]pyridin-3-yl)piperidin-1 yl]sulfonylaze-tidin-1-yl]-(3,3,5,5-tetramethylmorpholin-4-yl)methanone]: the IC50 fell in the range of 10 to 100 nM.

For the compound `CC(C)(C)OC(=O)N1CCN(S(=O)(=O)N2CC(S(=O)(=O)N3CCC(c4c[nH]c5ncccc45)CC3)C2)CC1` [Compound 172, tert-butyl 4-[3-[4-(1H-pyrrolo[2,3-b]pyridin-3-yl)piperidin-1-yl]sulfonylaze-tidin-1-yl] sulfonylpiper-azine-1-carboxylate], the IC50 was 10 to 100 nM.

Turning to `CC(C)N(C(=O)N1CC(S(=O)(=O)N2CCC(c3c[nH]c4ncccc34)CC2)C1)C(C)C` [Compound 173, N,N-Diisopropyl-3-[[4-(1H-pyrrolo[2,3-b]pyridin-3-yl)-1-piperidyl]sulfonyl]azetidine-1-carboxamide], the IC50 lay in the range of 100 to 1000 nM.

With `CN(C(=O)N1CC(S(=O)(=O)N2CCC(c3c[nH]c4ncccc34)CC2)C1)C(C)(C)C` [Compound 176, N-tert-butyl-N-methyl-3-[4-(1H-pyrrolo[2,3-b]pyridin-3-yl)piperidin-1-yl]sulfonylaze-tidine-1-carboxamide], the IC50 was less than 10 nM.

Take `CN(Cc1ccco1)C(=O)N1CC(S(=O)(=O)N2CCC(c3c[nH]c4ncccc34)CC2)C1` [Compound 178, N-(2-Furylmethyl)-N-methyl-3-[[4-(1H-pyrrolo[2,3-b]pyridin-3-yl)-1-piperidyl]sulfonyl]azetidine-1-carboxamide]: the IC50 lay in the range of 10 to 100 nM.

Regarding `CC(C)NC(=S)N1CC(S(=O)(=O)N2CCC(c3c[nH]c4ncccc34)CC2)C1` [Compound 179, N-propan-2-yl-3-[4-(1H-pyrrolo[2,3-b]pyridin-3-yl)piperidin-1-yl]sulfonylaze-tidine-1-carbo-thioamide], the IC50 is 10 to 100 nM.

For the compound `COC1CCC(OC(=O)N2CC(S(=O)(=O)N3CCC(c4c[nH]c5ncccc45)CC3)C2)CC1` (stereo not shown) [Compound 180, (4-methoxycyclohexyl) 3-[4-(1H-pyrrolo[2,3-b]pyridin-3-yl)piperidin-1-yl]sulfonylaze-tidine-1-carboxylate], the IC50 fell in the range of 10 to 100 nM.

`O=S(=O)(C1CN(c2ncccc2C2CC2)C1)N1CCC(c2c[nH]c3ncccc23)CC1` [Compound 181, 3-[1-[1-(3-cyclopropylpy-ridin-2-yl)azetidin-3-yl]sulfonylpiper-idin-4-yl]-1H-pyrrolo[2,3-b]pyridine]: the half-maximal inhibitory concentration (IC50) was 10 to 100 nM.

As for `O=S(=O)(C1CN(c2ncccc2CO)C1)N1CCC(c2c[nH]c3ncccc23)CC1` [Compound 182, [2-[3-[4-(1H-pyrrolo[2,3-b]pyridin-3-yl)piperidin-1-yl]sulfonylaze-tidin-1-yl]pyridin-3-yl]methanol], the IC50 was 10 to 100 nM.
